In patent publication US20230102554A1 (GB002, INC., priority 2019, published 2023):

Tests used:
[1] = biological target: T1, Human PDGFRα, cytoplasmic domain (GST-PDGFRα) (Homo sapiens, UniProt P16234); assay: Human PDGFRα biochemical inhibition assay (off-chip Mobility Shift Assay)
T1 construct: made in house

[2] = biological target: T2, Human PDGFRβ, cytoplasmic domain (GST-PDGFRβ) (Homo sapiens, UniProt P09619); assay: Human PDGFRβ biochemical inhibition assay (off-chip Mobility Shift Assay)
T2 construct: made in house
How it was run: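 GST-tagged cytoplasmic domain (aa 557-1106) from baculovirus was incubated 1 h at room temperature with compound, CSKtide, ATP at Km and Mg²⁺ in HEPES buffer, pH 7.5. Phosphorylated and unphosphorylated peptide were separated by off-chip mobility shift, and the product ratio P/(P+S) gave percent inhibition.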

T1 sequence (P16234 550-1089 T674I): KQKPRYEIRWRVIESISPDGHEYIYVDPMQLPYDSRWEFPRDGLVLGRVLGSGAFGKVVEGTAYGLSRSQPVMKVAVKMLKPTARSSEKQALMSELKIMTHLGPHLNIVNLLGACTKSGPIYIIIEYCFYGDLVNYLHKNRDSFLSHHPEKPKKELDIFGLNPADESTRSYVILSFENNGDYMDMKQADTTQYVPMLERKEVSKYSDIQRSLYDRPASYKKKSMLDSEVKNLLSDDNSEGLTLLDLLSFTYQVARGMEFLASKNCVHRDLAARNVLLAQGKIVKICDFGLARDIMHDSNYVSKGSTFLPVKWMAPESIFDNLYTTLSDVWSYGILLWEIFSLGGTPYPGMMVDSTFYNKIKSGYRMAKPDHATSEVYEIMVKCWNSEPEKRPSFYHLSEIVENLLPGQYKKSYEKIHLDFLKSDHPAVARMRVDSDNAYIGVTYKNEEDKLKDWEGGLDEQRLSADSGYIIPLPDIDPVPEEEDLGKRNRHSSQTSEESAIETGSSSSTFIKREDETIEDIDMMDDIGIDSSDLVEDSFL
T2 sequence (P09619 with tags, fused parts or gaps): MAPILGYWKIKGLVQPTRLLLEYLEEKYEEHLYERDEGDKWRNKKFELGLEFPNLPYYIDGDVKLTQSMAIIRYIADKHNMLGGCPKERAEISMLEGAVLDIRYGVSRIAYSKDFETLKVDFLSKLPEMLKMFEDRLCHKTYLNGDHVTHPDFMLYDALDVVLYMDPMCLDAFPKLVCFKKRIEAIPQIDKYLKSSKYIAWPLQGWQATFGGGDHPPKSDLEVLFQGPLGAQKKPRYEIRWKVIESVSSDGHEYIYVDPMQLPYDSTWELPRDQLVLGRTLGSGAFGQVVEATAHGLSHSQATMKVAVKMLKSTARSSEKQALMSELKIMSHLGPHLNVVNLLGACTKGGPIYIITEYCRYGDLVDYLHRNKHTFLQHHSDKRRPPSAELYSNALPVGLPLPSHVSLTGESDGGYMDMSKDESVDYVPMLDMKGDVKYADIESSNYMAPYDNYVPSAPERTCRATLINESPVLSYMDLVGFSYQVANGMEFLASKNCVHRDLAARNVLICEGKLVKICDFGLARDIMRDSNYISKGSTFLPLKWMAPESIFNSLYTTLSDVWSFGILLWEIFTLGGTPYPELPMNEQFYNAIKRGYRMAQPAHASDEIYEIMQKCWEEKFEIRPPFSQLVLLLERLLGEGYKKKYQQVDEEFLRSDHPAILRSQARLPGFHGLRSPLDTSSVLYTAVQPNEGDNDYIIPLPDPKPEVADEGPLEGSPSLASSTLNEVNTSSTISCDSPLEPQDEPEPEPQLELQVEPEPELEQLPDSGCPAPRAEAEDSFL

| IC50 [1] [nM] | IC50 [2] [nM] | Structure (SMILES) |
| --- | --- | --- |
| < 300 | < 300 | Cc1cncc(C(=O)Nc2cccc([C@H](C)Nc3cnc4[nH]c(-c5cnn(C)c5)nc4c3)c2)c1 [Compound 602, (S)-5-methyl-N-(3-(1-((2-(1-methyl-1H-pyrazol-4-yl)-3H-imidazo[4,5-b]pyridin-6-yl)amino)ethyl)phenyl) nicotinamide] |
| 300 to 1000 | ≥ 1000 | Cc1cncc(C(=O)Nc2cccc([C@H](C)Nc3cnc4ccn(C)c4c3)c2)c1 [Compound 80, (S)-5-methyl-N-(3-(1-((1-methyl-1H-pyrrolo[3,2-b]pyridin-6-yl)amino)ethyl)phenyl)nicotinamide] |
| < 300 | < 300 | Cc1cc(C(=O)Nc2cccc([C@H](C)Nc3cnc4cnn(C)c4n3)c2)cnc1NC(C)C [Compound 198, (S)-6-(isopropylamino)-5-methyl-N-(3-(1-((1-methyl-1H-pyrazolo[3,4-b]pyrazin-6-yl)amino)ethyl)phenyl) nicotinamide] |
| < 300 | < 300 | CCn1cc2ncc(N[C@@H](C)c3cccc(NC(=O)c4cnc(C)c(C)c4)c3)nc2n1 [Compound 328, (S)-N-(3-(1-((2-ethyl-2H-pyrazolo[3,4-b]pyrazin-6-yl)amino)ethyl)phenyl)-5,6-dimethylnicotinamide] |
| < 300 | < 300 | Cc1cncc(C(=O)Nc2cccc([C@H](C)Nc3cnc4cn(CCF)nc4n3)c2)c1 [Compound 277, (S)-N-(3-(1-((2-(2-fluoroethyl)-2H-pyrazolo[3,4-b]pyrazin-6-yl)amino)ethyl)phenyl)-5-methylnicotinamide] |
| < 300 | 300 to 1000 | C[C@H](Nc1cnc2cnn(C)c2n1)c1cccc(NC(=O)Nc2cccnc2)c1 [Compound 730, (S)-1-(3-(1-((1-methyl-1H-pyrazolo[3,4-b]pyrazin-6-yl)amino)ethyl)phenyl)-3-(pyridin-3-yl)urea] |
| < 300 | < 300 | CCn1cnc2ccc(C(=O)Nc3cccc([C@H](C)Nc4cnc5cnn(C)c5n4)c3)cc21 [Compound 74, (S)-1-ethyl-N-(3-(1-((1-methyl-1H-pyrazolo[3,4-b]pyrazin-6-yl)amino)ethyl)phenyl)-1H-benzo[d]imidazole-6-carboxamide] |
| 300 to 1000 | ≥ 1000 | C[C@H](Nc1cnc2cnn(C)c2n1)c1cccc(NC(=O)c2cnn(C)c2)c1 [Compound 146, (S)-1-methyl-N-(3-(1-((1-methyl-1H-pyrazolo[3,4-b]pyrazin-6-yl)amino)ethyl)phenyl)-1H-pyrazole-4-carboxamide] |
| < 300 | < 300 | C[C@H](Nc1cnc2cnn(C)c2n1)c1cccc(NC(=O)c2cncc(C(F)F)c2)c1 [Compound 103, (S)-5-(difluoromethyl)-N-(3-(1-((1-methyl-1H-pyrazolo[3,4-b]pyrazin-6-yl)amino)ethyl)phenyl)nicotinamide] |
| < 300 | < 300 | Cc1cc(C(=O)Nc2cccc([C@H](C)Nc3cnc4cn[nH]c4n3)c2)cnc1C(F)(F)F [Compound 98, (S)-N-(3-(1-((1H-pyrazolo[3,4-b]pyrazin-6-yl)amino)ethyl)phenyl)-5-methyl-6-(trifluoromethyl)nicotinamide] |
| < 300 | < 300 | C[C@H](Nc1cnc2cnn(C)c2n1)c1cccc(NC(=O)c2ccc(OC(F)F)nc2)c1 [Compound 118, (S)-6-(difluoromethoxy)-N-(3-(1-((1-methyl-1H-pyrazolo[3,4-6]pyrazin-6-yl)amino)ethyl)phenyl)nicotinamide] |
| < 300 | < 300 | CCn1cc2ncc(N[C@@H](C)c3cccc(NC(=O)c4cnc(Cl)c(C)c4)c3)nc2n1 [Compound 383, (S)-6-chloro-N-(3-(1-((2-ethyl-2H-pyrazolo[3,4-b]pyrazin-6-yl)amino)ethyl)phenyl)-5-methylnicotinamide] |

The next lines start with the compound.

| Structure (SMILES) | IC50 [1] [nM] | IC50 [2] [nM] |
| --- | --- | --- |
| CCn1cc2ncc(N[C@@H](C)c3cc(NC(=O)c4ccc(C(F)(F)F)nc4)ccc3Cl)nc2n1 [Compound 458, (S)-N-(4-chloro-3-(1-((2-ethyl-2H-pyrazolo[3,4-b]pyrazin-6-yl)amino)ethyl)phenyl)-6-(trifluoromethyl)nicotinamide] | < 300 | < 300 |
| Cc1cc(C(=O)Nc2cccc([C@H](C)Nc3cnc4cnn(C)c4n3)c2)cnc1OCC(C)C [Compound 229, (S)-6-isobutoxy-5-methyl-N-(3-(1-((1-methyl-1H-pyrazolo[3,4-b]pyrazin-6-yl)amino)ethyl)phenyl)nicotinamide] | < 300 | < 300 |
| CCn1cc2ncc(N[C@@H](C)c3cc(NC(=O)c4cnc(F)c(C)c4)ccc3C)nc2n1 [Compound 512, (S)-N-(3-(1-((2-ethyl-2H-pyrazolo[3,4-b]pyrazin-6-yl)amino)ethyl)-4-methylphenyl)-6-fluoro-5-methylnicotinamide] | < 300 | < 300 |
| CCn1cc2ncc(N[C@@H](C)c3cc(NC(=O)Cc4ccc(C5CCC5)cn4)ccc3F)nc2n1 [Compound 667, (S)-2-(5-cyclobutylpyridin-2-yl)-N-(3-(1-((2-ethyl-2H-pyrazolo[3,4-b]pyrazin-6-yl)amino)ethyl)-4-fluorophenyl) acetamide] | < 300 | ≥ 1000 |
| CCn1cc2ncc(N[C@@H](C)c3cc(NC(=O)Cc4ccc(F)cc4)ccc3C)nc2n1 [Compound 701, (S)-N-(3-(1-((2-ethyl-2H-pyrazolo[3,4-b]pyrazin-6-yl)amino)ethyl)-4-methylphenyl)-2-(4-fluorophenyl)acetamide] | < 300 | < 300 |
| CCn1cc2ncc(N[C@@H](C)c3cc(NC(=O)c4ccc(N5CCN(C)CC5)c(C)c4)ccc3F)nc2n1 [Compound 412, (S)-N-(3-(1-((2-ethyl-2H-pyrazolo[3,4-b]pyrazin-6-yl)amino)ethyl)-4-fluorophenyl)-3-methyl-4-(4-methylpiperazin-1-yl)benzamide] | < 300 | < 300 |
| CCNc1ccc(C(=O)Nc2cccc([C@H](C)Nc3cnc4cn(CC)nc4n3)c2)cn1 [Compound 394, (S)-N-(3-(1-((2-ethyl-2H-pyrazolo[3,4-b]pyrazin-6-yl)amino)ethyl)phenyl)-6-(ethylamino)nicotinamide] | < 300 | ≥ 1000 |
| CCn1cc2ncc(N[C@@H](C)c3cccc(NC(=O)c4ccc(NC5CC5)nc4)c3)nc2n1 [Compound 385, (S)-6-(cyclopropylamino)-N-(3-(1-((2-ethyl-2H-pyrazolo[3,4-b]pyrazin-6-yl)amino)ethyl)phenyl)nicotinamide] | < 300 | 300 to 1000 |
| C[C@H](Nc1cnc2cnn(C)c2n1)c1cccc(NC(=O)c2ccc(Cl)s2)c1 [Compound 135, (S)-5-chloro-N-(3-(1-((1-methyl-1H-pyrazolo[3,4-b]pyrazin-6-yl)amino)ethyl)phenyl)thiophene-2-carboxamide] | < 300 | < 300 |
| CCn1cc2ncc(N[C@@H](C)c3cccc(NC(=O)c4cnc(C#N)c(C)c4)c3)nc2n1 [Compound 289, (S)-6-cyano-N-(3-(1-((2-ethyl-2H-pyrazolo[3,4-b]pyrazin-6-yl)amino)ethyl)phenyl)-5-methylnicotinamide] | < 300 | 300 to 1000 |
| C[C@H](Nc1cnc2cnn(C)c2n1)c1cccc(NC(=O)c2ccc3c(c2)CCCO3)c1 [Compound 71, (S)-N-(3-(1-((1-methyl-1H-pyrazolo[3,4-b]pyrazin-6-yl)amino)ethyl)phenyl)chromane-6-carboxamide] | < 300 | < 300 |
| CCn1cc2ncc(N[C@@H](C)c3cc(NC(=O)c4cnc(N5CCN(C)CC5)c(C)c4)ccc3F)nc2n1 [Compound 432, (S)-N-(3-(1-((2-ethyl-2H-pyrazolo[3,4-b]pyrazin-6-yl)amino)ethyl)-4-fluorophenyl)-5-methyl-6-(4-methylpiperazin-1-yl)nicotinamide] | < 300 | < 300 |
| C[C@H](Nc1cnc2cnn(C)c2n1)c1cccc(NC(=O)c2cc(C(F)(F)F)nn2C)c1 [Compound 160, (S)-1-methyl-N-(3-(1-((1-methyl-1H-pyrazolo[3,4-b]pyrazin-6-yl)amino)ethyl)phenyl)-3-(trifluoromethyl)-1H-pyrazole-5-carboxamide] | < 300 | < 300 |
| CCn1cc2ncc(N[C@@H](C)c3cccc(NC(=O)c4ccc(CN5CCCC5)c(Cl)c4)c3)nc2n1 [Compound 418, (S)-3-chloro-N-(3-(1-((2-ethyl-2H-pyrazolo[3,4-b]pyrazin-6-yl)amino)ethyl)phenyl)-4-(pyrrolidin-1-ylmethyl) benzamide] | < 300 | < 300 |
| Cc1n[nH]c2ncc(N[C@@H](C)c3cccc(NC(=O)c4ccc(C(F)F)s4)c3)nc12 [Compound 539, (S)-5-(difluoromethyl)-N-(3-(1-((3-methyl-1H-pyrazolo[3,4-b]pyrazin-5-yl)amino)ethyl)phenyl)thiophene-2-carboxamide] | < 300 | < 300 |
| CC(C)Cn1ccc(C(=O)Nc2cccc([C@H](C)Nc3cnc4cnn(C)c4n3)c2)n1 [Compound 157, (S)-1-isobutyl-N-(3-(1-((1-methyl-1H-pyrazolo[3,4-b]pyrazin-6-yl)amino)ethyl)phenyl)-1H-pyrazole-3-carboxamide] | < 300 | < 300 |
| C[C@H](Nc1cnc2cnn(C)c2n1)c1cccc(NC(=O)N2CCCC(C(F)(F)F)C2)c1 (stereo partly drawn) [Compound 54, N-(3-((S)-1-((1-methyl-1H-pyrazolo[3,4-b]pyrazin-6-yl)amino)ethyl)phenyl)-3-(trifluoromethyl)piperidine-1-carboxamide] | < 300 | < 300 |
| CCn1cc2ncc(N[C@@H](C)c3cccc(NC(=O)c4ccc(CN5CC[C@H](F)C5)c(Cl)c4)c3)nc2n1 [Compound 484, 3-chloro-N-(3-((S)-1-((2-ethyl-2H-pyrazolo[3,4-b]pyrazin-6-yl)amino)ethyl)phenyl)-4-(((S)-3-fluoropyrrolidin-1-yl)methyl) benzamide] | < 300 | < 300 |
